From patent US12551475B2, “Methods and compositions for treating RNA viral infections” (Model Medicines, Inc., priority 2020, dated 2026)
Read-outs that look alike come from different tables or passages of the source.

Tests used:
[1] = humans; cited from earlier work
[2] = rats; cited from earlier work
[3] = intravenously, cited from earlier work
SARS-CoV-2 [4] = settings: read-out: CPE EC50; cited from earlier work
[5] = dog, IV; cited from earlier work
SARS-CoV-2 [6] = settings: cited from earlier work
[7] = target: T1, cytochrome P450 (CYP) 3A4 (Homo sapiens, UniProt P08684); settings: human liver microsomes; cited from earlier work
T1 construct: from tissue; host or cells: human liver microsomes
T1 sequence (P08684 whole entry): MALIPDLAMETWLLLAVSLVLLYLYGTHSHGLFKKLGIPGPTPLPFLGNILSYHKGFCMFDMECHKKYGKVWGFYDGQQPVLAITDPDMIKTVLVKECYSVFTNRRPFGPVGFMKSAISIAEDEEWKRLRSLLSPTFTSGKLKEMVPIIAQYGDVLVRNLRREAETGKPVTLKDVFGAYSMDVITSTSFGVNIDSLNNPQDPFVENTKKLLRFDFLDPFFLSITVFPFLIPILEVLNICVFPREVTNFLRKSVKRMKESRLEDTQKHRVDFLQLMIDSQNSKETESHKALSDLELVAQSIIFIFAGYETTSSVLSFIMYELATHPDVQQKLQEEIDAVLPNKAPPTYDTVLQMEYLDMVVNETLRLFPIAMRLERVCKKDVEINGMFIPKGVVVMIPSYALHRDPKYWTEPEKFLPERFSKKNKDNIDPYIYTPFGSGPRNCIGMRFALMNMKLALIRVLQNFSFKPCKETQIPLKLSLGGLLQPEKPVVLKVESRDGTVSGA

Vero E6 cells = settings: cited from earlier work
[8] = mouse, IV; cited from earlier work
[9] = 30 mg/kg and 60 mg/kg oral gavage; cited from earlier work
[10] = Uninfected host cell cytotoxicity counter screen; assay type: cell-based, human; settings: human, uninfected HeLa-ACE2 cells; uninfected HeLa-ACE2, 24 h
Description: (§1) Compounds were acoustically transferred into 1,536-well clear plates (Greiner Part. No. 789091). HeLa-ACE2 cells were maintained as described for the infection assay and seeded in the assay-ready plates at 400 cells/well in DMEM with 2% FBS and plates were incubated for 24 hours at 37 5% CO2. To assess cell viability, the Image-iT DEAD green reagent (Thermo Fisher) was used according to manufacturer instructions. Cells were fixed with 4% paraformaldehyde, and counterstained with DAPI. Fixed cells were imaged using the ImageXpress Micro Confocal High-Content Imaging System (Molecular Devices) with a 10× objective, and total live cells per well quantified in the acquired images using the Live Dead Application Module (MetaXpress).
(§2) Image analysis was carried out with MetaXpress (version 6.5.4.532). Primary in vitro screen and the host cell cytotoxicity counter screen data were uploaded to Genedata Screener, Version 16.0.3-Standard. Data were normalized to neutral (DMSO) […] inhibitor controls (2.5 μM remdesivir for antiviral effect and 10 μM puromycin for infected host cell toxicity). For the uninfected host cell cytotoxicity counter screen 40 μM puromycin (Sigma) was used as the positive control. For dose response experiments compounds were tested in technical triplicates on different assay plates and dose curves were fitted with the four parameter Hill Equation. Technical replicate data were analyzed using median condensing.

SARS-CoV-2 [11] = settings: for Hill coefficient (Nh): slope of the dose response curve
[12] = in vivo, cited from earlier work
SARS-CoV-2 [13] = test: microbe, parasite or virus in culture
[14] = i.v., 28 day, dosed daily; cited from earlier work
[15] = monkey, IV; cited from earlier work
[16] = tested on: adhesion of HuT 78 cells to ICAM-1; settings: cited from earlier work
[17] = target: T2, LFA-1 interaction with ICAM-1 (Homo sapiens, UniProt P05107+P20701); settings: Jurkat T cells; cited from earlier work
T2 construct: endogenous in cells; host or cells: Jurkat T cells
T2 sequence (P20701 26-1170): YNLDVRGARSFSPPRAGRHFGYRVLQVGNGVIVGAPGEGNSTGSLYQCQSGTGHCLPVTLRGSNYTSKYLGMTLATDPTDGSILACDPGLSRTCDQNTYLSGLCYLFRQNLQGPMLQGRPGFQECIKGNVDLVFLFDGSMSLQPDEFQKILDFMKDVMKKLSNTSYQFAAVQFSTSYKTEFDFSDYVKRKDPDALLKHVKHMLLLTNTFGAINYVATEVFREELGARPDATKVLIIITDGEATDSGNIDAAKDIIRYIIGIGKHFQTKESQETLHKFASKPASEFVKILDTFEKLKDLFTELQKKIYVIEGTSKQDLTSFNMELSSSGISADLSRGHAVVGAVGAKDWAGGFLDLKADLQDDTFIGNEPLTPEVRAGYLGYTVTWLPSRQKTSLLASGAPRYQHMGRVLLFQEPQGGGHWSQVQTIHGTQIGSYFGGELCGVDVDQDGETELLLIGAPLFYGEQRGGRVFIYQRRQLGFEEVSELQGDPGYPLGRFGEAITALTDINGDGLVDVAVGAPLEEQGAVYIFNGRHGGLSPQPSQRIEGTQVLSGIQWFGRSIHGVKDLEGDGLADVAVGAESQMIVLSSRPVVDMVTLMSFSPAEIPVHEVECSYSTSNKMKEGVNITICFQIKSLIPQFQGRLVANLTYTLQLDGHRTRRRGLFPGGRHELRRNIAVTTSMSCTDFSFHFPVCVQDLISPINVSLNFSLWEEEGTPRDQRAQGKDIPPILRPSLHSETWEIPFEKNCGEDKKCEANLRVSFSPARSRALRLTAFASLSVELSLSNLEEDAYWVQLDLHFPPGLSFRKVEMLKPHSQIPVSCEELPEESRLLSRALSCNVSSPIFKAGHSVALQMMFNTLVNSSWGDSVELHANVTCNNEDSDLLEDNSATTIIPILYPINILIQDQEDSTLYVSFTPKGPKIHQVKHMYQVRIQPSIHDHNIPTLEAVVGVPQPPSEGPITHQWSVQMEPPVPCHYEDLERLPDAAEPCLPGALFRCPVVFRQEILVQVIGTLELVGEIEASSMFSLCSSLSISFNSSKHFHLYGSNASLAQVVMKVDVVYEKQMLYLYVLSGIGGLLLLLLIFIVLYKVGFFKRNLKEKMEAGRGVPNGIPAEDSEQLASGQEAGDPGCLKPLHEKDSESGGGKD
T2 sequence (P05107 23-769): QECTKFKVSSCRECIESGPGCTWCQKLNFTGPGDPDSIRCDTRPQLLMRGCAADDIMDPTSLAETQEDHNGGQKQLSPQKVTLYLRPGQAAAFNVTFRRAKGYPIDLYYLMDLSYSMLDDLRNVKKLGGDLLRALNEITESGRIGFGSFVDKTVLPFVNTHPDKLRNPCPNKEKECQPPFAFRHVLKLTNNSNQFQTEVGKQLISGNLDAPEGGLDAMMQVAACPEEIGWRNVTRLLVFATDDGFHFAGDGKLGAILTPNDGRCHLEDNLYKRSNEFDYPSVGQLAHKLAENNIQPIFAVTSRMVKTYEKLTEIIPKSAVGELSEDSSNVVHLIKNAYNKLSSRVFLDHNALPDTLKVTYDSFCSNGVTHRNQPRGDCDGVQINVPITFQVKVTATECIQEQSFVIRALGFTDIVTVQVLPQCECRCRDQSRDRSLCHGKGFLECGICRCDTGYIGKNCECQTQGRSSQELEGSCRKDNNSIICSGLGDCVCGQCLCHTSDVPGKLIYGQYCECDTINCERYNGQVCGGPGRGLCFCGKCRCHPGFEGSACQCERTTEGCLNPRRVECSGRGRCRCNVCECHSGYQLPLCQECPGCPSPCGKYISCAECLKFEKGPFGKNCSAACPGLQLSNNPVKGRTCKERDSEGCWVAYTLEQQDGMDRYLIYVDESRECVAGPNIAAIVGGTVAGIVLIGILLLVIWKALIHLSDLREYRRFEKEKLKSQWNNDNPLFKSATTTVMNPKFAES

HIV-1 = settings: cited from earlier work
MP-2 cancer cells = settings: cited from earlier work
L1210 cancer cells = settings: cited from earlier work
BxPC-3 cancer cells = settings: cited from earlier work
CEM cancer cells = settings: cited from earlier work
adenosine A2 receptors = settings: cited from earlier work
[18] = mice; cited from earlier work
[19] = humans; cited from earlier work; remark: listed apart in the source
HeLa-ACE2 cells [20] = test: Uninfected host cell cytotoxicity counter screen; assay type: cell-based, human; settings: uninfected HeLa-ACE2, 24 h
Description: as §1, §2

SARS-CoV-2 [21] = settings: cited from earlier work; remark: listed apart in the source
HeLa-ACE2 cells [22] = settings: Bakowski et al, 2020; cited from earlier work
[23] = pig, in vivo; cited from earlier work
[24] = target: pig striatum A2A receptor (Sus scrofa, UniProt K9IW67); settings: cited from earlier work
Chain of pig striatum A2A receptor (K9IW67 entry or part of it): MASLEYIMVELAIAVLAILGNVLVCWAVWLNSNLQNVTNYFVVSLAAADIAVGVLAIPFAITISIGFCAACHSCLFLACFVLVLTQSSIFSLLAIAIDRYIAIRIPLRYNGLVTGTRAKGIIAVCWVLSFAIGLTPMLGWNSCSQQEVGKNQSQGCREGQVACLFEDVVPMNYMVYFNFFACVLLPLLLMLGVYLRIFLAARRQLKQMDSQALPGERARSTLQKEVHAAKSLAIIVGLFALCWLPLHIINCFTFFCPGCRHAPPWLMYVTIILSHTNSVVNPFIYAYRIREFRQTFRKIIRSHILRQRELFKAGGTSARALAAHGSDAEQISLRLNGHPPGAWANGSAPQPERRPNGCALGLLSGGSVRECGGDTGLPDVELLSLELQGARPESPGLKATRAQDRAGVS

[25] = Severe acute respiratory syndrome coronavirus 2, HeLa-ACE2, 24 h
[26] = Severe acute respiratory syndrome coronavirus 2, HeLa-ACE2, CoV-2/HeLa-ACE2 assay, unit uM

Compound: Cc1c(-c2ccc(O)cc2)n(Cc2ccc(OCCN3CCCCCC3)cc2)c2ccc(O)cc12 [Bazedoxifene]
- safely tolerated dose [1]: 20 mg/day
- safely tolerated dose [2]: 100 mg/kg/day

Compound: CNCc1ccc(-c2cc(-c3nc(-c4ccc(S(=O)(=O)C(C)C)cc4)cnc3N)on2)cc1 [Berzosertib]
- safe and well tolerated clinical dose, no DLTs observed ([3]; once-weekly): 480 mg/m2
- safe and well tolerated clinical dose, no DLTs observed ([3]; twice weekly): 240 mg/m2
- EC50 (SARS-CoV-2 [4]): 710 nM
- systemic clearance (CL) [5]: 13 mL/min/kg
- IC50 (SARS-CoV-2 [6]): < 25 nM
- enzyme mainly metabolizing the drug [7]: cytochrome P450 (CYP) 3A4
- CC50 (Vero E6 cells): 11200 nM
- systemic clearance (CL) [8]: 82 mL/min/kg
- tolerability (in words) [9]: no adverse effects or toxicity
- CC50 at 24 h [10]: 3140 nM
- activity in the HeLa-ACE2 cell-based SARS-CoV-2 assay (in words) (SARS-CoV-2 [11]): demonstrated activity
- Hill coefficient (Nh) (SARS-CoV-2 [11]): 1.485
- half-life (t 1/2) [12]: about 17 hours
- EC50 (SARS-CoV-2 [13]; [25]): 0.114 µM
- EC50 (SARS-CoV-2 [13]; [26]): 0.114 µM
- STD10 [14]: 30 mg/kg/day
- systemic clearance (CL) [15]: 29 mL/min/kg

Compound: CS(=O)(=O)c1cccc(C[C@H](NC(=O)c2c(Cl)cc3c(c2Cl)CCN(C(=O)c2ccc4ccoc4c2)C3)C(=O)O)c1 [Lifitegrast, N-[[2-(6-benzofuranylcarbonyl)-5,7-dichloro-1,2,3,4-tetrahydro-6-isoquinolinyl]carbonyl]-3-(methylsulfonyl)-L-phenylalanine]
- IC50 [16]: 9 nM
- IC50 [17]: 2.98 nM

Compound: Cc1cccc(C)c1OCC(=O)N[C@@H](Cc1ccccc1)[C@@H](O)C[C@H](Cc1ccccc1)NC(=O)[C@H](C(C)C)N1CCCNC1=O [Lopinavir, N-[(1S,3S,4S)-4-[[2-(2,6-dimethylphenoxy)acetyl]amino]-3-hydroxy-5-phenyl-1-(phenylmethyl)pentyl]tetrahydro-aS-(1-methylethyl)-2-oxo-1(2H)-pyrimidineacetamide]
- EC50 (HIV-1): 5 to 52 nM

Compound: C[C@H](NP(=O)(OC[C@H]1O[C@@H](n2ccc(N)nc2=O)C(F)(F)[C@@H]1O)Oc1ccccc1)C(=O)OCc1ccccc1 (stereo partly drawn) [NUC-1031, N-(2′-deoxy-2′,2′-difluoro-P-phenyl-5′-cytidylyl)-L-alanine, phenylmethyl ester]
- IC50 (MP-2 cancer cells): 60 nM
- IC50 (L1210 cancer cells): 35 nM
- IC50 (BxPC-3 cancer cells): 40 nM
- IC50 (CEM cancer cells): 30 nM

Compound: CNC(=O)[C@H]1O[C@@H](n2cnc3c(NCc4cccc(I)c4)ncnc32)[C@H](O)[C@@H]1O [Piclidenoson, 1-deoxy-1-[6-[[(3-iodophenyl)methyl]amino]-9H-purin-9-yl]-N-methyl-β-D-ribofuranuronamide]
- Ki (adenosine A2 receptors): 3100 nM

Compound: Cc1c(-c2ccc(O)cc2)n(Cc2ccc(OCCN3CCCCC3)cc2)c2ccc(O)cc12 [Pipendoxifene]
- safely tolerated dose [18]: at least 20 mg/kg/day
- safely tolerated dose [19]: up to 200 mg/daily
- CC50 (HeLa-ACE2 cells [20]): > 39800 nM
- EC90 (SARS-CoV-2 [11]): 14300 nM
- activity in the HeLa-ACE2 cell-based SARS-CoV-2 assay (in words) (SARS-CoV-2 [11]): demonstrated activity
- EC50 (SARS-CoV-2 [11]; CoV-2/HeLa-ACE2 assay, unit uM): 8.42 µM
- EC10 (SARS-CoV-2 [11]; derived from the graph): 5012 nM
- Hill coefficient (Nh) (SARS-CoV-2 [11]): 4
- half-life (t ½) ([12]; hamster): 30 h
- half-life (t 1/2) [12]: 15.8 to 27.3 h
- EC50 (SARS-CoV-2 [13]; [25]): 8.24 µM
- EC50 (SARS-CoV-2 [13]; [26]): 8.24 µM
- EC90 (SARS-CoV-2 [13]; Severe acute respiratory syndrome coronavirus 2, HeLa-ACE2, read-out: EC90 (Hill equation, Equation I)): 15000 nM
- EC90 (SARS-CoV-2 [13]; Severe acute respiratory syndrome coronavirus 2, HeLa-ACE2, read-out: EC90 range from both equations): 14300 to 15000 nM

Compound: Nc1nc(Nc2ccc3c(c2)CC[C@@H](N2CCCC2)CC3)nn1-c1cc2c(nn1)-c1ccccc1CCC2 [R-428]
- synergy score with remdesivir against SARS-CoV-2 (SARS-CoV-2 [21]; Bakowski et al, 2020): 7.22
- EC50 (SARS-CoV-2 [21]; ReFRAME screen, same methods (Bakowski et al, 2020)): 2880 nM
- CC50 (HeLa-ACE2 cells [22]): > 40000 nM

Compound: CNC(=O)c1cnn(-c2nc(N)c3ncn([C@@H]4O[C@H](CO)[C@@H](O)[C@H]4O)c3n2)c1 [Regadenoson, 2-[4-[(methylamino)carbonyl]-1H-pyrazol-1-yl]-adenosine]
- half-time to reversal [23]: 1.9 to 2.6 min
- increase of coronary blood flow [23]: 3.4- to 3.8 fold
- Ki [24]: 1.1 nM
